# Source: PubChem BioAssay (NCI)
#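 Cells were grown in 96-well plates and exposed to each compound for 48 hours at five concentrations; endpoints were interpolated linearly between bracketing concentrations, or set to the highest concentration if not reached. GI50 = concentration required for 50% inhibition of growth. TGI denotes the concentration required for complete inhibition of growth.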
# How the values were obtained:
# Test in all cases: NCI anticancer screen, dose series, 48 h
# [1] = test system: 786-0 renal
# [2] = test system: ACHN renal
# [3] = test system: BT-549 breast
# [4] = test system: CAKI-1 renal
# [5] = test system: CCRF-CEM leukemia
# [6] = test system: COLO 205 colon
# [7] = test system: DU-145 prostate
# [8] = test system: EKVX NSCLC
# [9] = test system: HCC-2998 colon
# [10] = test system: HCT-116 colon
# [11] = test system: HCT-15 colon
# [12] = test system: HOP-62 NSCLC
# [13] = test system: HOP-92 NSCLC
# [14] = test system: HS 578T breast
# [15] = test system: HT29 colon
# [16] = test system: IGROV1 ovarian
# [17] = test system: K-562 leukemia
# [18] = test system: KM12 colon
# [19] = test system: LOX IMVI melanoma
# [20] = test system: M14 melanoma
# [21] = test system: MALME-3M melanoma
# [22] = test system: MCF7 breast
# [23] = test system: MDA-MB-231 breast
# [24] = test system: MDA-MB-435
# [25] = test system: MOLT-4 leukemia
# [26] = test system: NCI-H226 lung
# [27] = test system: NCI-H23 lung
# [28] = test system: NCI/ADR-RES ovarian
# [29] = test system: OVCAR-3 ovarian
# [30] = test system: OVCAR-4 ovarian
# [31] = test system: OVCAR-5 ovarian
# [32] = test system: OVCAR-8 ovarian
# [33] = test system: PC-3 prostate
# [34] = test system: RPMI-8226 leukemia
# [35] = test system: RXF 393 renal
# [36] = test system: SF-268 CNS
# [37] = test system: SF-295 CNS
# [38] = test system: SF-539 CNS
# [39] = test system: SK-MEL-28 melanoma
# [40] = test system: SK-MEL-5 melanoma
# [41] = test system: SN12C renal
# [42] = test system: SNB-19 CNS
# [43] = test system: SNB-75 CNS
# [44] = test system: SR leukemia
# [45] = test system: T-47D breast
# [46] = test system: U251 CNS
# [47] = test system: UACC-257 melanoma
# [48] = test system: UACC-62 melanoma
# [49] = test system: A498 renal
# [50] = test system: A549 NSCLC
# [51] = test system: NCI-H460 lung
# [52] = test system: SK-OV-3 ovarian
# [53] = test system: SW-620 colon
# [54] = test system: TK-10 renal
# [55] = test system: UO-31 renal
compound,measurement,setting,value
N#Cc1c(N)n(C2OC(CO)C(O)C2O)c2ncnc(N)c12 (configuration not stated),TGI,[1],5550 nM
same,TGI,[2],417 nM
same,TGI,[3],2130 nM
same,TGI,[4],263 nM
same,TGI,[5],1340 nM
same,TGI,[6],191 nM
same,TGI,[7],> 17400 nM
same,TGI,[8],> 100000 nM
same,GI50,[9],145 nM
same,TGI,[9],509 nM
same,TGI,[10],> 7590 nM
same,TGI,[11],164 nM
same,TGI,[12],2390 nM
same,TGI,[13],> 100000 nM
same,TGI,[14],2160 nM
same,TGI,[15],> 100000 nM
same,TGI,[16],> 100000 nM
same,TGI,[17],> 20200 nM
same,TGI,[18],1980 nM
same,TGI,[19],59.5 nM
same,TGI,[20],265 nM
same,TGI,[21],161 nM
same,TGI,[22],1210 nM
same,TGI,[23],> 8220 nM
same,TGI,[24],89.1 nM
same,TGI,[25],163 nM
same,TGI,[26],372 nM
same,TGI,[27],206 nM
same,TGI,[28],137 nM
same,TGI,[29],156 nM
same,TGI,[30],> 100000 nM
same,TGI,[31],3280 nM
same,TGI,[32],279 nM
same,TGI,[33],578 nM
same,TGI,[34],3590 nM
same,TGI,[35],1330 nM
same,TGI,[36],1810 nM
same,TGI,[37],2450 nM
same,TGI,[38],417 nM
same,TGI,[39],432 nM
same,TGI,[40],279 nM
same,TGI,[41],856 nM
same,TGI,[42],> 84200 nM
same,TGI,[43],3560 nM
same,TGI,[44],47.4 nM
same,TGI,[45],221 nM
same,TGI,[46],> 78200 nM
same,TGI,[47],574 nM
same,TGI,[48],94.1 nM
COc1cc(-c2nn(-c3ccc(NC(=O)Nc4ccc(Cl)c(C(F)(F)F)c4)cc3)cc2-c2ccncc2)ccc1Cl,GI50,[1],1800 nM
same,TGI,[1],4270 nM
same,GI50,[49],1410 nM
same,TGI,[49],3540 nM
same,GI50,[50],2660 nM
same,TGI,[50],11400 nM
same,GI50,[2],2020 nM
same,TGI,[2],9710 nM
same,GI50,[3],2010 nM
same,TGI,[3],4570 nM
same,GI50,[4],1290 nM
same,TGI,[4],3540 nM
same,GI50,[5],1420 nM
same,TGI,[5],7010 nM
same,GI50,[6],1670 nM
same,TGI,[6],3290 nM
same,GI50,[7],2470 nM
same,TGI,[7],7520 nM
same,GI50,[8],1100 nM
same,TGI,[8],3950 nM
same,GI50,[9],1640 nM
same,TGI,[9],3100 nM
same,GI50,[10],1140 nM
same,TGI,[10],2530 nM
same,GI50,[11],1440 nM
same,TGI,[11],3220 nM
same,GI50,[12],1900 nM
same,TGI,[12],3930 nM
same,GI50,[13],1820 nM
same,TGI,[13],5850 nM
same,GI50,[14],1910 nM
same,TGI,[14],4960 nM
same,GI50,[16],2060 nM
same,TGI,[16],6070 nM
same,GI50,[17],1590 nM
same,TGI,[17],5580 nM
same,GI50,[18],1360 nM
same,TGI,[18],2870 nM
same,GI50,[19],1430 nM
same,TGI,[19],2780 nM
same,GI50,[20],1740 nM
same,TGI,[20],3630 nM
same,GI50,[22],2510 nM
same,TGI,[22],8280 nM
same,GI50,[23],1760 nM
same,TGI,[23],3820 nM
same,GI50,[24],1600 nM
same,TGI,[24],3540 nM
same,GI50,[26],2140 nM
same,TGI,[26],7220 nM
same,GI50,[27],1980 nM
same,TGI,[27],5790 nM
same,GI50,[51],1710 nM
same,TGI,[51],3620 nM
same,GI50,[28],2120 nM
same,TGI,[28],7850 nM
same,GI50,[29],1570 nM
same,TGI,[29],3590 nM
same,GI50,[30],2340 nM
same,TGI,[30],8450 nM
same,GI50,[31],1940 nM
same,TGI,[31],5680 nM
same,GI50,[32],2030 nM
same,TGI,[32],7830 nM
same,GI50,[33],1670 nM
same,TGI,[33],> 100000 nM
same,GI50,[35],1540 nM
same,TGI,[35],4410 nM
same,GI50,[36],1930 nM
same,TGI,[36],5010 nM
same,GI50,[38],1760 nM
same,TGI,[38],3980 nM
same,GI50,[39],1880 nM
same,TGI,[39],3900 nM
same,GI50,[40],1560 nM
same,TGI,[40],2940 nM
same,GI50,[52],2530 nM
same,TGI,[52],6430 nM
same,GI50,[41],2600 nM
same,TGI,[41],8820 nM
same,GI50,[42],2530 nM
same,TGI,[42],8130 nM
same,GI50,[43],1280 nM
same,TGI,[43],4030 nM
same,GI50,[53],1820 nM
same,TGI,[53],3580 nM
same,GI50,[45],2660 nM
same,TGI,[45],7370 nM
same,GI50,[54],3060 nM
same,TGI,[54],13200 nM
same,GI50,[46],1210 nM
same,TGI,[46],2620 nM
same,GI50,[47],1640 nM
same,TGI,[47],3690 nM
same,GI50,[48],1770 nM
same,TGI,[48],3750 nM
same,GI50,[55],1440 nM
same,TGI,[55],3130 nM
